Measurements published in publication PMC6332220, “Synthesis, Characterization and Biological Evaluation of Some Quinoxaline Derivatives: A Promising and Potent New Class of Antitumor and Antimicrobial Agents” (Molecules, 2015).
Values after ≈ are worked out from the molar mass of the structure shown.

Key:
[1] = test system: NCI-H460 (non-small cell lung cancer); assay: In vitro cytotoxicity, SRB cell growth assay, NCI-H460; conditions: Homo sapiens, NCI-H460, 48 h, read-out: IC50 (μg/mL) NCI-H460
Procedure: The in vitro cytotoxic activity of the newly synthesized compounds against human breast cell line (MCF7), non-small cell lung cancer NCIH460, CNS cancer SF-268 and WI 38 (normal fibroblast cells) were evaluated using doxorubicin as the reference drug according to the method reported by Skehan et al..
The newly synthesized compounds were evaluated in vitro against three human cancer cell lines; which are MCF-7 (breast adenocarcinoma), NCI-H460 (non-small cell lung cancer) and SF-268 (CNS cancer), and WI 38 (normal fibroblast cells) were used in this study. MCF-7 was obtained from the European Collection of Cell Cultures (ECACC, Salisbury, UK) but NCI-H460, SF-268 and WI 38 were kindly provided by the National Cancer Institute (NCI, Cairo, Egypt). They grow as monolayer and routinely maintained RPMI-1640 medium supplemented with 5% heat inactivated fetal bovine serum (FBS), 2 mM glutamine and antibiotics (penicillin 100 U/mL, streptomycin 100 µg/mL), at 37 °C in a humidified atmosphere containing 5% CO2. Exponentially growing cells were obtained by plating 1.5 × 10^5 cells/mL for MCF-7 and SF-268, and 0.75 × 10^4 cells/mL for NCI-H460 followed by 24 h of incubation. The effect of the vehicle solvent (DMSO) on the growth of these cell lines was evaluated in all experiments by exposing untreated control cells to the maximum concentration (0.5%) of DMSO used in each assay.
The effect of compounds on the in vitro growth of human tumor cell lines were evaluated according to the procedure adopted by the National Cancer Institute ([…]) in the “In vitro Anticancer Drug Discovery Screen” that uses the protein-binding dye sulforhodamine B (SRB) to assess cell growth. In the assay protocol, all cells were incubated at 37 °C under humidified atmosphere containing 5% CO2. Briefly, exponentially cells growing in 96-well plates were then exposed for 48 h to five serial concentrations of each compound, starting from a maximum concentration of 150 μg/mL. Following this exposure period adherent cells were fixed, washed and stained. The bound stain was solubilized and the absorbance was measured at 492 nm in a plate reader (Bio-Tek Instruments Inc., Power wave XS, Winston, NC, USA). For each test compound and cell line, a dose response curve was obtained and the inhibitory concentration of 50% (IC50), corresponding to the concentration of the compounds that inhibited 50% of the net cell growth was calculated as described elsewhere. Doxorubicin was used as a positive control and tested in the same manner.

Bacillus subtilis = assay: Disk diffusion, Bacillus subtilis; format: cell-based; conditions: Gram positive, 8.0 mm disks, 10 μL
Procedure: (§1) The disk diffusion method was used for determination of the antimicrobial activity using ampicillin, gentamicin and amphotericin B as reference drugs. The results were recorded for each compounds as the average diameter as inhibition zones (IZ) of bacterial or fungal growth around the discs in mm as shown in Table 2.
(§2) Antimicrobial activities were carried out against highly pathogenic strains; three strains of Gram positive bacteria (Bacillus subtilis, Staphylococcus aureus and Streptococcus faecalis), four strains of Gram negative bacteria (Escherichia coli, Neisseria gonorrhoeae, Pseudomonas aeruginosa and Salmonella typhimurium) and three fungi strains (Aspergillus flavus, Aspergillus fumigatus and Candida albicans) isolated from primary agar plates. Antimicrobial activity of the tested samples was determined using a modified Kriby-Bauer disk diffusion method. Briefly, 100 µL of the test bacteria/fungi were grown in 10 mL of fresh media until they reached a count approximately 10^8 cells/mL for bacteria or 10^5 cells/mL for fungi. 100 µL of microbial suspension was spread onto agar plates corresponding to the broth in which they were maintained. The inoculated plates of bacterial strains were incubated at 35–37 °C for 24–48 h, while the inoculated plates of fungal strains such as A. flavus and A. fumigatus were incubated at 25 °C for 48 h and yeast as C. albicans was incubated at 30 °C for 24–48 h.
(§3) The agar disk diffusion (qualitative) method was used in this investigation for determination of the preliminary antibacterial and antifungal activities. The agar used was Mueller-Hinton agar plates that are rigorously tested for composition and pH. Further the depth of the agar in the plate is a factor to be considered in the disk diffusion method.
(§4) Reference drugs: ampicillin was used as a standard antibacterial drug for Gram positive bacteria, gentamicin as a standard antibacterial drug for Gram negative bacteria and amphotericin B as antifungal standard drug.
(§5) Bacterial and fungal strains were spread onto the surface of the agar plates using sterile cotton swabs. For evaluation of antibacterial activities, blank paper disks (Schleicher & Schuell, Alicante, Spain) with a diameter of 8.0 mm were saturated with 10 μL of tested concentration of the stock solutions. Disks were dried and then placed onto inoculated agar plates. The plates of bacterial strains were reincubated at 35–37 °C for 24–48 h, while the plates of fungal strains such as A. flavus and A. fumigatus were reincubated at 25 °C for 48 h and yeast as C. albicans was reincubated at 30 °C for 24–48 h as mentioned above. […] For an accurate analysis, tests were run in triplicate for each strain to avoid any error as described in Table 2.

Staphylococcus aureus = assay: Disk diffusion, Staphylococcus aureus; format: cell-based; conditions: Gram positive, 8.0 mm disks, 10 μL
Procedure: as §1, §2, §3, §4, §5

Streptococcus faecalis = assay: Disk diffusion, Streptococcus faecalis; format: cell-based; conditions: Gram positive, 8.0 mm disks, 10 μL
Procedure: as §1, §2, §3, §4, §5

Escherichia coli = assay: Disk diffusion, Escherichia coli; format: cell-based; conditions: Gram negative, 8.0 mm disks, 10 μL
Procedure: as §1, §2, §3, §4, §5

Neisseria gonorrhoeae = assay: Disk diffusion, Neisseria gonorrhoeae; format: cell-based; conditions: Gram negative, 8.0 mm disks, 10 μL
Procedure: as §1, §2, §3, §4, §5

Salmonella typhimurium [2] = assay: Disk diffusion, Salmonella typhimurium; format: cell-based; conditions: Gram negative, 8.0 mm disks, 10 μL
Procedure: as §1, §2, §3, §4, §5

Aspergillus flavus = assay: Disk diffusion, Aspergillus flavus; format: cell-based; conditions: Fungi, 8.0 mm disks, 10 μL
Procedure: as §1, §2, §3, §4, §5
(§6) Disk diffusion method for filamentous fungi testing by using approved standard method (M02-A11) developed by the CLSI for evaluating the susceptibilities of filamentous fungi to antifungal agents. Disk diffusion method for yeasts developed by using approved standard method (M44-A2) by the CLSI [44]. Agar-based methods such as disk diffusion can be good alternatives because they are simpler and faster than broth-based methods.

Aspergillus fumigatus = assay: Disk diffusion, Aspergillus fumigatus; format: cell-based; conditions: Fungi, 8.0 mm disks, 10 μL
Procedure: as §1, §2, §3, §4, §5, §6

Salmonella typhimurium [3] = assay: MIC by broth dilution, Salmonella typhimurium; format: cell-based; conditions: Salmonella enterica, TYPHIMURIUM, Gram negative, 0.98-125 µg/mL, read-out: Minimum Inhibitory Concentration (MIC) (µg/mL) Salmonella typhimurium
Procedure: In this study, MIC (quantitative method) was used for evaluation of the antimicrobial activity of tested compounds. Screening was evaluated in vitro using the Broth dilution method according to CLSI [45]. All the bacteria were incubated and activated at 30 °C for 24 h inoculation into nutrient broth and the fungi were incubated in malt extract broth for 48 h. The compounds were dissolved in DMSO and then diluted using […] Mueller-Hinton broth. […] In each case triplicate tests were performed and the average was taken as the final reading. The tubes were then inoculated with the test organisms, grown in their suitable broth at 37 °C for 24 h for tested microorganisms (1 × 10^8 CFU/mL for bacteria and 1 × 10^6 CFU/mL of fungi), each 5 mL received 0.1 mL of the above inoculum and incubated at 37 °C for 24 h.

MIC (Salmonella typhimurium [3])	SMILES	IC50 [1]	Inhibition Zone Diameter (IZ) (mm) Bacillus subtilis (Bacillus subtilis)	Inhibition Zone Diameter (IZ) (mm) Staphylococcus aureus (Staphylococcus aureus)	Inhibition Zone Diameter (IZ) (mm) Streptococcus faecalis (Streptococcus faecalis)	Inhibition Zone Diameter (IZ) (mm) Escherichia coli (Escherichia coli)	Inhibition Zone Diameter (IZ) (mm) Neisseria gonorrhoeae (Neisseria gonorrhoeae)	Inhibition Zone Diameter (IZ) (mm) Salmonella typhimurium (Salmonella typhimurium [2])	Inhibition Zone Diameter (IZ) (mm) Aspergillus flavus (Aspergillus flavus)	Inhibition Zone Diameter (IZ) (mm) Aspergillus fumigatus (Aspergillus fumigatus)
31.2 µg/mL (≈ 93.8 µM)	Brc1ccc2nc(N3CCCCC3)c3nnnn3c2c1 [Compound 5a, 8-Bromo-4-(piperidin-1-yl)tetrazolo[1,5-a]quinoxaline]	0.02 ± 0.006 µg/mL (≈ 0.06 µM)	13 mm	11 mm	9 mm	13 mm	R (R (IZ = 0 mm))	14 mm	R (R (IZ = 0 mm))	12 mm
0.98 µg/mL (≈ 3.44 µM)	Clc1nc2ccc(Br)cc2n2nnnc12 [Compound 4, 8-Bromo-4-chlorotetrazolo[1,5-a]quinoxaline]	0.01 ± 0.004 µg/mL (≈ 0.0351 µM)	20 mm	26 mm	18 mm	17 mm	21 mm	17 mm	13 mm	10 mm
1.95 µg/mL (≈ 5.82 µM)	Brc1ccc2nc(N3CCOCC3)c3nnnn3c2c1 [Compound 5b, 8-Bromo-4-(morpholin-4-yl)tetrazolo[1,5-a]quinoxaline]	0.01 ± 0.002 µg/mL (≈ 0.0298 µM)	17 mm	17 mm	11 mm	11 mm	R (R (IZ = 0 mm))	13 mm	R (R (IZ = 0 mm))	12 mm
1.95 µg/mL (≈ 5.85 µM)	Cc1cc(C)n(-c2nc3cc(Br)ccc3nc2NN)n1 [Compound 14, 6-Bromo-3-(3,5-dimethyl-1H-pyrazol-1-yl)-2-hydrazinyl quinoxaline]	38.3 ± 2.35 µg/mL (≈ 115 µM)	12 mm	12 mm	12 mm	12 mm	12 mm	10 mm	R (R (IZ = 0 mm))	R (R (IZ = 0 mm))
7.81 µg/mL (≈ 26.8 µM)	Brc1ccc2c(c1)n1nnnc1c1nnnn21 [Compound 11, 9-Bromoditetrazolo[1,5-a:5′,1′-c]quinoxaline]	2.83 ± 0.53 µg/mL (≈ 9.72 µM)	19 mm	17 mm	15 mm	15 mm	R (R (IZ = 0 mm))	18 mm	R (R (IZ = 0 mm))	R (R (IZ = 0 mm))
0.98 µg/mL (≈ 3.64 µM)	NNc1nc2ccc(Br)cc2nc1NN [Compound 9, 6-Bromo-2,3-dihydrazinylquinoxaline]	16.4 ± 2.32 µg/mL (≈ 60.8 µM)	28 mm	27 mm	27 mm	29 mm	28 mm	17 mm	R (R (IZ = 0 mm))	5 mm
1.95 µg/mL (≈ 4.84 µM)	NC1=NN(c2nc3ccc(Br)cc3nc2N2N=C(N)CC2=O)C(=O)C1 [Compound 16, 6-Bromo-2,3-bis(3-amino-1H-pyrazol-5(4H)-one)quinoxaline]	22.9 ± 0.46 µg/mL (≈ 56.9 µM)	10 mm	12 mm	11 mm	10 mm	11 mm	10 mm	R (R (IZ = 0 mm))	R (R (IZ = 0 mm))

SMILES	MIC (Salmonella typhimurium [3])	IC50 [1]	Inhibition Zone Diameter (IZ) (mm) Bacillus subtilis (Bacillus subtilis)	Inhibition Zone Diameter (IZ) (mm) Staphylococcus aureus (Staphylococcus aureus)	Inhibition Zone Diameter (IZ) (mm) Streptococcus faecalis (Streptococcus faecalis)	Inhibition Zone Diameter (IZ) (mm) Escherichia coli (Escherichia coli)	Inhibition Zone Diameter (IZ) (mm) Neisseria gonorrhoeae (Neisseria gonorrhoeae)	Inhibition Zone Diameter (IZ) (mm) Salmonella typhimurium (Salmonella typhimurium [2])	Inhibition Zone Diameter (IZ) (mm) Aspergillus flavus (Aspergillus flavus)	Inhibition Zone Diameter (IZ) (mm) Aspergillus fumigatus (Aspergillus fumigatus)
NNc1nc2cc(Br)ccc2nc1Cl [Compound 3, 6-Bromo-2-chloro-3-hydrazinylquinoxaline]	1.95 µg/mL (≈ 7.13 µM)	26.7 ± 2.18 µg/mL (≈ 97.8 µM)	15 mm	14 mm	14 mm	13 mm	14 mm	13 mm	R (R (IZ = 0 mm))	R (R (IZ = 0 mm))
